# Measured values from PubChem BioAssay AID2060328 (Molecular Pharmacology Branch, DTP, NCI, 2025).
# Values joined by “and” are separate entries in the source; they are usually repeats but may differ in a detail not shown here. Identical values can stand only once.
# Test system: MDA-MB-231 multicell spheroids, viability (%T/C)
# Assay: Anticancer human tumor MDA-MB-231 cell line growth inhibition [IpAb];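 also: viability read after seven days of drug exposure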;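 as to viability, T/C: 100% = DMSO vehicle control viability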
# Conditions: for viability, T/C: stronger effect = lower value
# From the text: Combinatorial screen of targeted agents with ipatasertib and abemaciclib in multi-cell type tumor spheroids
# A high-throughput screen of multi-cell type tumor spheroids was designed to identify active combinations of targeted small molecules and ipatasertib or abemaciclib. Complex spheroids include a stromal component modeled by human endothelial cells (HUVEC) and fibroblasts modeled by human mesenchymal stem cells (MSCs). The concentration ranges selected for each drug and investigational agent were based upon clinically achievable concentrations if the clinical Cmax of the agent was known.
# Compounds. The drugs and investigational agents: ipatasertib (NSC767898), abemaciclib(NSC768073), selumetinib (NSC741078), trametinib (758246), adavosertib (NSC754352), everolimus (NSC733504), sapanisertib (NSC764658), vemurafenib (NSC761431), venetoclax (NSC766270), copanlisib (NSC809693), apelisib (NSC765974), palbociblib (NSC758247), vemurafenib (NSC761431), dabrafenib (NSC764134), ravoxertinib (NSC781343), BMS-387032 (NSC767048), sotorasib (NSC818433), talazoparib (NSC767125) and afursertib (NSC778305), were obtained from the National Cancer Institute (NCI) Developmental Therapeutics Program Chemical Repository. The FDA-approved anticancer drug set is available from the NCI Developmental Therapeutics Program. […] The stock solutions were prepared in dimethyl sulfoxide (DMSO, Sigma-Aldrich, St. Louis, MO, cat. D2650) at 800-fold the tested concentration and stored at -70 degrees C prior to their use. All drugs and investigational agents were tested over a range starting from a high concentration at or near the clinical Cmax and decreasing in half-log increments. If the clinical Cmax for an agent had not been determined, the highest concentration tested was 10 microM.
# NCI60 Cell Culture. NCI60 cell lines were obtained from the NCI Developmental Therapeutics Program Tumor Repository. For each lot of cells, the Repository performed Applied Biosystems AmpFLSTR Identifiler testing with PCR amplification to confirm consistency with the published Identifier STR profile for each cell line. Cells were kept in continuous culture for no more than 20 passages. The optimal seeding densities for each of the cell lines at each time point assessed were determined prior to performing the concentration response studies. Briefly, the NCI60 human tumor lines were grown as monolayers in RPMI 1640 medium supplemented with 10% FBS and 2 mmol/L L-glutamine.
# An additional 9 lines were from the NCI60 cell line panel including MDA-MB-231 breast carcinoma, MDA-MB-468 breast carcinoma, MCF7 breast carcinoma, Hs578T breast carcinoma, MALME-3M melanoma, SK-MEL-2 melanoma, SK-OV-3 ovarian carcinoma, DU-145 prostate carcinoma, PC-3 prostate carcinoma, all cell lines along with major genetic alterations are listed on Table 2. Pooled donor human umbilical vein endothelial cells (HUVEC, Lonza, cat. CC-2519) and human mesenchymal stem cells (hMSC, Lonza, cat. PT-2501) were purchased from Lonza (Walkersville, MD).
# PDMR cell lines were grown in complete medium (DC medium): Dulbecco's modified Eagle's medium (DMEM)/F12 supplemented with 5% fetal bovine serum (FBS), 2 mM L-glutamine, 100 U/mL penicillin and 100 µg/ml streptomycin, 0.4 µg/ml hydrocortisone, 10 ng/ml epidermal growth factor (EGF) recombinant human protein, 24 µg/mL adenine, and 0.1 mg/mL primocin. During culture from frozen stock vials, PDMR cells were cultured in the same medium containing 10 µM Y-27632 (see Table 3). The PDCs were cultured in complete DMEM/F12 media without 10 microM Y-27632 dihydrochloride for at least two passages prior to the screen. The pooled donor HUVEC and hMSC were cultured in endothelial cell growth medium 2 (PromoCell, Heidelberg, Germany, cat. C-22011) and mesenchymal stem cell growth medium 2 (PromoCell, cat. C-28009), respectively. For all experiments, HUVEC and hMSC were used at passages </=5.
# […]
structure (smiles),measurement,setting,value
Cc1nc(NC(=O)N2CCCC2C(N)=O)sc1-c1ccnc(C(C)(C)C(F)(F)F)c1 (stereo not given),"viability, T/C",compound 0.0316 µM,92.2% and 88.6%
same,"viability, T/C",compound 0.1 µM,74.9% and 72.1%
same,"viability, T/C",compound 0.316 µM,68.2% and 66%
same,"viability, T/C",compound 1 µM,65.7% and 73.6%
same,"viability, T/C",compound 3.16 µM,66.8% and 71.2%
same,"viability, T/C",compound 10 µM,62.7% and 60.5%
same,IC50,curve of compound,> 10000 nM
Cn1cnc2c(F)c(Nc3ccc(Br)cc3Cl)c(C(=O)NOCCO)cc21,"viability, T/C",compound 0.00949 µM,75.6% and 63.3%
same,"viability, T/C",compound 0.03 µM,59.9% and 54.4%
same,"viability, T/C",compound 0.0949 µM,54.8% and 50.4%
same,"viability, T/C",compound 0.3 µM,52.9% and 41.3%
same,"viability, T/C",compound 0.949 µM,27.7% and 30.4%
same,"viability, T/C",compound 3 µM,14.4% and 19.2%
same,IC50,curve of compound,186 nM and 72.9 nM
Cn1ncc(Cl)c1-c1cc(C(=O)NC(CN)Cc2cccc(F)c2)sc1Cl (stereo not given),"viability, T/C",compound 0.0316 µM,100% and 101%
same,"viability, T/C",compound 0.1 µM,89.6% and 87.9%
same,"viability, T/C",compound 0.316 µM,75.6%
same,"viability, T/C",compound 1 µM,57.4% and 57.5%
same,"viability, T/C",compound 3.16 µM,37.4% and 30%
same,"viability, T/C",compound 10 µM,0.23% and 0.17%
same,IC50,curve of compound,1520 nM and 1330 nM
Cn1nccc1Nc1nccc(-c2ccn(C(CO)c3ccc(Cl)c(F)c3)c(=O)c2)n1 (stereo not given),"viability, T/C",compound 0.0316 µM,71% and 65.7%
same,"viability, T/C",compound 0.1 µM,59% and 53.1%
same,"viability, T/C",compound 0.316 µM,49.6% and 47.1%
same,"viability, T/C",compound 1 µM,48% and 38%
same,"viability, T/C",compound 3.16 µM,30.3% and 33.5%
same,"viability, T/C",compound 10 µM,23.5% and 21.3%
same,IC50,curve of compound,406 nM and 209 nM
Cn1ncnc1[C@H]1c2n[nH]c(=O)c3cc(F)cc(c23)N[C@@H]1c1ccc(F)cc1,"viability, T/C",compound 0.000316 µM,99.2% and 96.9%
same,"viability, T/C",compound 0.001 µM,92.1% and 94%
same,"viability, T/C",compound 0.00316 µM,81.4% and 85.3%
same,"viability, T/C",compound 0.01 µM,79.3% and 79.6%
same,"viability, T/C",compound 0.0316 µM,77.7% and 75.4%
same,"viability, T/C",compound 0.1 µM,67.3% and 69.8%
same,IC50,curve of compound,> 100 nM
Cn1cnc2c(F)c(Nc3ccc(Br)cc3Cl)c(C(=O)NOCCO)cc21 + CC(C)NCC(C(=O)N1CCN(c2ncnc3c2C(C)CC3O)CC1)c1ccc(Cl)cc1,IC50,"curve of first compound, second compound 0.1 µM",< 9.49 nM
same,IC50,"curve of first compound, second compound 0.316 µM",< 9.49 nM
same,IC50,"curve of first compound, second compound 1 µM",< 9.49 nM
same,IC50,"curve of first compound, second compound 3.16 µM",< 9.49 nM
same,IC50,"curve of first compound, second compound 10 µM",< 9.49 nM
same,"viability, T/C","second compound 0.1 µM, first compound 0.00949 µM",43.2%
same,"viability, T/C","second compound 0.1 µM, first compound 0.03 µM",36.2%
same,"viability, T/C","second compound 0.1 µM, first compound 0.0949 µM",34.3%
same,"viability, T/C","second compound 0.1 µM, first compound 0.3 µM",27.8%
same,"viability, T/C","second compound 0.1 µM, first compound 0.949 µM",23.4%
same,"viability, T/C","second compound 0.1 µM, first compound 3 µM",13%
same,"viability, T/C","second compound 0.316 µM, first compound 0.00949 µM",38%
same,"viability, T/C","second compound 0.316 µM, first compound 0.03 µM",31.8%
same,"viability, T/C","second compound 0.316 µM, first compound 0.0949 µM",29.5%
same,"viability, T/C","second compound 0.316 µM, first compound 0.3 µM",24.1%
same,"viability, T/C","second compound 0.316 µM, first compound 0.949 µM",20.4%
same,"viability, T/C","second compound 0.316 µM, first compound 3 µM",11.6%
same,"viability, T/C","second compound 1 µM, first compound 0.00949 µM",31.2%
same,"viability, T/C","second compound 1 µM, first compound 0.03 µM",28.2%
same,"viability, T/C","second compound 1 µM, first compound 0.0949 µM",24.8%
same,"viability, T/C","second compound 1 µM, first compound 0.3 µM",23%
same,"viability, T/C","second compound 1 µM, first compound 0.949 µM",17.5%
same,"viability, T/C","second compound 1 µM, first compound 3 µM",10.5%
same,"viability, T/C","second compound 3.16 µM, first compound 0.00949 µM",25%
same,"viability, T/C","second compound 3.16 µM, first compound 0.03 µM",22.6%
same,"viability, T/C","second compound 3.16 µM, first compound 0.0949 µM",20.6%
same,"viability, T/C","second compound 3.16 µM, first compound 0.3 µM",18.4%
same,"viability, T/C","second compound 3.16 µM, first compound 0.949 µM",14.5%
same,"viability, T/C","second compound 3.16 µM, first compound 3 µM",7.58%
same,"viability, T/C","second compound 10 µM, first compound 0.00949 µM",18.9%
same,"viability, T/C","second compound 10 µM, first compound 0.03 µM",16.9%
same,"viability, T/C","second compound 10 µM, first compound 0.0949 µM",13.8%
same,"viability, T/C","second compound 10 µM, first compound 0.3 µM",13.1%
same,"viability, T/C","second compound 10 µM, first compound 0.949 µM",8.94%
same,"viability, T/C","second compound 10 µM, first compound 3 µM",4.82%
